Measurements as given in patent publication US20250034216A1, “STEREOSELECTIVE COVALENT LIGANDS FOR ONCOGENIC AND IMMUNOLOGICAL PROTEINS” (The Scripps Research Institute, priority 2021, published 2025).

How the values were obtained:
Test in all cases: IA-DTB cysteine engagement
Assay type in all cases: binding
Conditions in all cases: 22Rv1 cells, 20 μM probe, 1 h, relative to DMSO
CENPC_C291 = biological target: T1, CENPC_C291 (Homo sapiens, UniProt Q03188)
T1 construct: endogenous in cells; host or cells: 22Rv1
Summary of the method: (§1)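 Probe-exposed cells were lysed, IA-DTB-labeled, trypsinized and streptavidin-enriched. Multiplexed TMT quantitation gave engagement ratios versus DMSO, with non-tryptic peptides excluded and intensities normalized to median summed signal.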

PTGES2_C110 = biological target: T2, PTGES2_C110 (Homo sapiens, UniProt Q9H7Z7)
T2 construct: endogenous in cells; host or cells: 22Rv1
Summary of the method: as §1

WDR45B_C63 = biological target: T3, WDR45B_C63 (Homo sapiens, UniProt Q5MNZ6)
T3 construct: endogenous in cells; host or cells: 22Rv1
Summary of the method: as §1

WAPL_C1133 = biological target: T4, WAPL_C1133 (Homo sapiens, UniProt Q7Z5K2)
T4 construct: endogenous in cells; host or cells: 22Rv1
T4 sequence (Q7Z5K2 1-1190): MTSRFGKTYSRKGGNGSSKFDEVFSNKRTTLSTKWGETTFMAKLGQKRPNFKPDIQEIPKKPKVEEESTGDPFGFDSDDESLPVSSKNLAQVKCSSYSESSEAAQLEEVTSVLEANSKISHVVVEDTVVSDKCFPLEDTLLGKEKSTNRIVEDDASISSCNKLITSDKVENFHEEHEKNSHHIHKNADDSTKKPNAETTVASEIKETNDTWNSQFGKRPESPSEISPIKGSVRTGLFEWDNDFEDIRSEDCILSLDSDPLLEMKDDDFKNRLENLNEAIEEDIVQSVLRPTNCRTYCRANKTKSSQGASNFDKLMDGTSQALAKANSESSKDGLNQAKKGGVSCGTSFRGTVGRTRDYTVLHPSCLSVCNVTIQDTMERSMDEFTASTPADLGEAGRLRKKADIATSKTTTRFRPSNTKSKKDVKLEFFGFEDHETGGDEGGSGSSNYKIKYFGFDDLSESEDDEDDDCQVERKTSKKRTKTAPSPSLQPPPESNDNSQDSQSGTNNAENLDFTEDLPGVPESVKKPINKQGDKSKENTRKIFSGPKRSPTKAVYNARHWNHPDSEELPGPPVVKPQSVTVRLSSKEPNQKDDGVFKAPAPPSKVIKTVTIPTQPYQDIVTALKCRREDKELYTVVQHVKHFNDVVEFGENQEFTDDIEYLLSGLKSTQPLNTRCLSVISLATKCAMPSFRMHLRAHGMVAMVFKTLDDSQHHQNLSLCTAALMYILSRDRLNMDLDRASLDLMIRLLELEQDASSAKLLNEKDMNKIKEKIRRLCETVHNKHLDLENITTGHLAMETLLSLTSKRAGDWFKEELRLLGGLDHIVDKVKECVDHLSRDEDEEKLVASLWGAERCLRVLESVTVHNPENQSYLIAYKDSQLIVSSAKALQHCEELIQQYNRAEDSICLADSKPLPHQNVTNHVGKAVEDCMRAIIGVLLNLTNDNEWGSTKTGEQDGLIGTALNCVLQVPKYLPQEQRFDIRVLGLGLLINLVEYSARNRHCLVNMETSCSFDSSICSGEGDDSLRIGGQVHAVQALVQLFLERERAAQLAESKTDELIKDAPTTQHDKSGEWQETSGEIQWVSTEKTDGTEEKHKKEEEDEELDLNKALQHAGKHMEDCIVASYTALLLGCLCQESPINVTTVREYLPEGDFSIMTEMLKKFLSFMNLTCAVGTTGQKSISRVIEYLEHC
Summary of the method: as §1

FXYD3_C63 = biological target: T5, FXYD3_C63 (Homo sapiens, UniProt Q14802)
T5 construct: endogenous in cells; host or cells: 22Rv1
T5 sequence (Q14802 21-87): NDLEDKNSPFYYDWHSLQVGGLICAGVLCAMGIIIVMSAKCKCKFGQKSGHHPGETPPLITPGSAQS
Summary of the method: as §1

SRC_C280 = biological target: T6, SRC_C280 (Homo sapiens, UniProt P12931)
T6 construct: endogenous in cells; host or cells: 22Rv1
Summary of the method: as §1

T2 sequence (Q9H7Z7 whole entry): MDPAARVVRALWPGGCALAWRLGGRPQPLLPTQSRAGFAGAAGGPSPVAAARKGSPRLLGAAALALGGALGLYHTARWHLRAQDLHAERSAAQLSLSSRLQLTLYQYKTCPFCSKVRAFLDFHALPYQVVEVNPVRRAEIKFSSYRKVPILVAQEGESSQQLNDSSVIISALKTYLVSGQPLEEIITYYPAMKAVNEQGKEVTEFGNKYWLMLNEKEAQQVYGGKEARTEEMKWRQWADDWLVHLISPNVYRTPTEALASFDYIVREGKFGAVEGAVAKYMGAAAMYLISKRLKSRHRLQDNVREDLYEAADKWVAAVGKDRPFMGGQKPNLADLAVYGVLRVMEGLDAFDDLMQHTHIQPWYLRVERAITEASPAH
T6 sequence (P12931 whole entry): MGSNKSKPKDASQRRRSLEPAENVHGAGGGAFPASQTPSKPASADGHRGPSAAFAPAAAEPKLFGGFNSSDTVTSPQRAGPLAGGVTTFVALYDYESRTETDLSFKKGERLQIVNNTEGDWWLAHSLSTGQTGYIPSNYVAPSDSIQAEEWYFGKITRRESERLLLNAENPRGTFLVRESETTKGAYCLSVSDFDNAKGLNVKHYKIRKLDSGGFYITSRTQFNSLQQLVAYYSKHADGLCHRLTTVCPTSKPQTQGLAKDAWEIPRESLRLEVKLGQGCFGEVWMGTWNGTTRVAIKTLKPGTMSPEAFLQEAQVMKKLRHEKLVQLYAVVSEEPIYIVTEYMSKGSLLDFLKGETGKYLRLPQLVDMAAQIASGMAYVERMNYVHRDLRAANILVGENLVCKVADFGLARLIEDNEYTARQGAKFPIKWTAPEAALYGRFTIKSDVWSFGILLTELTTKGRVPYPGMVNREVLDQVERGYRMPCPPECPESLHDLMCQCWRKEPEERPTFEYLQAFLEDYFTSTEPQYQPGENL
T3 sequence (Q5MNZ6 whole entry): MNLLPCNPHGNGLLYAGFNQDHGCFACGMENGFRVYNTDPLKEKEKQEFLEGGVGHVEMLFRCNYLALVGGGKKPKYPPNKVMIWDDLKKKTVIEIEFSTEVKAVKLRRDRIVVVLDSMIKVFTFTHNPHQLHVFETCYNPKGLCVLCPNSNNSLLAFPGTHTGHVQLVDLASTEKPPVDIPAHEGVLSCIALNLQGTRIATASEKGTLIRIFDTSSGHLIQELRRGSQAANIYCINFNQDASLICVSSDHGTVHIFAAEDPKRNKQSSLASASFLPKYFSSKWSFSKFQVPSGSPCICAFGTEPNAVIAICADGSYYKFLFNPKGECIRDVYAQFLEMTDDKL
T1 sequence (Q03188 whole entry): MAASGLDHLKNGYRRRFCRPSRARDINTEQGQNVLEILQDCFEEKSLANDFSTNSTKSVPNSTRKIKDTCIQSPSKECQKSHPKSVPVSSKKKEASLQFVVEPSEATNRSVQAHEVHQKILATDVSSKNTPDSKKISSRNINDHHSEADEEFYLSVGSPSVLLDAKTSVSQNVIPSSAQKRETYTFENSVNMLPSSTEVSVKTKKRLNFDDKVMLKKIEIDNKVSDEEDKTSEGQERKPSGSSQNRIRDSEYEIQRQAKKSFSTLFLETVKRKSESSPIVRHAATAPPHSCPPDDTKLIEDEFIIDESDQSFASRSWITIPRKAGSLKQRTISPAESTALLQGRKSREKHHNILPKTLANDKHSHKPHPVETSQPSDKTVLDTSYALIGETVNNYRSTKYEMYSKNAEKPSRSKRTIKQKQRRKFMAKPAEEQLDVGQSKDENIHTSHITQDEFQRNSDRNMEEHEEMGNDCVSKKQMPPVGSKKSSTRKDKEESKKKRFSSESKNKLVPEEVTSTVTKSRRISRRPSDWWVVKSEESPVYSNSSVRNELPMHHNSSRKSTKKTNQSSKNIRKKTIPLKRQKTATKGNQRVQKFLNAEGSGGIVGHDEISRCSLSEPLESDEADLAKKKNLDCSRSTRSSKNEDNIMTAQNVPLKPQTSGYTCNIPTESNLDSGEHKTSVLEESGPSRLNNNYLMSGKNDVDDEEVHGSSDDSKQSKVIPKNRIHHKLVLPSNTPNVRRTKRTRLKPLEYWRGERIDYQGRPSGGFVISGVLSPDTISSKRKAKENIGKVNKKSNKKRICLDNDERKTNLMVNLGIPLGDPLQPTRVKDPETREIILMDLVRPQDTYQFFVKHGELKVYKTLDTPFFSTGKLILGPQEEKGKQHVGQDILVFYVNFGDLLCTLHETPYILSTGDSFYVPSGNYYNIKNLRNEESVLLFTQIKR

% engagement CENPC_C291 (CENPC_C291)	% engagement PTGES2_C110 (PTGES2_C110)	% engagement WDR45B_C63 (WDR45B_C63)	% engagement WAPL_C1133 (WAPL_C1133)	% engagement FXYD3_C63 (FXYD3_C63)	% engagement SRC_C280 (SRC_C280)	SMILES
82.5%	89.25%	86.75%	46%	71%	64%	C=CC(=O)N1C[C@H](c2ccc(Br)cc2)[C@H]1C(=O)Nc1cccc2cccnc12 [MY-3B, (2S,3S)-1-acryloyl-3-(4-bromophenyl)-N-(quinolin-8-yl)azetidine-2-carboxamide]
7%	38.5%	7.25%	34%	52.5%	92.25%	C=CC(=O)N1C[C@H](c2ccc(Br)cc2)[C@@H]1C(=O)Nc1cccc2cccnc12 [MY-1B, (2R,3S)-1-acryloyl-3-(4-bromophenyl)-N-(quinolin-8-yl)azetidine-2-carboxamide]
28%	69.75%	0%	78.5%	43.5%	2%	C=CC(=O)N1C[C@H](c2ccc(Br)cc2)[C@H]1C(=O)Nc1cccc2cccnc12 [MY-3A, (2S,3S)-1-acryloyl-3-(4-bromophenyl)-N-(quinolin-8-yl)azetidine-2-carboxamide]
−1.5%	31.25%	52.25%	18%	48.5%	17.75%	C=CC(=O)N1C[C@@H](c2ccc(Br)cc2)[C@H]1C(=O)Nc1cccc2cccnc12 [MY-1A, (2S,3R)-1-acryloyl-3-(4-bromophenyl)-N-(quinolin-8-yl)azetidine-2-carboxamide]
